According to paper PMC10165273, “Itch receptor MRGPRX4 interacts with the receptor activity–modifying proteins” (The Journal of Biological Chemistry, 2023):
Values joined by “and” are separate entries in the source; they are usually repeats but may differ in a detail not shown here. Equal entries are not always repeated.

Assays:
[1] = target: T1, MRGPRX4 + RAMP3 (Homo sapiens, UniProt Q96LA9); assay: IP1 accumulation, MRGPRX4 coexpressed with RAMP3; format: cell-based; design: key to IP1 Basal / response to agonist, X4:ramp3.I:0.25 / response to agonist, X4:ramp3.I:0.5 / response to agonist, X4:ramp3.I:1: % IP1; unstimulated mock = 0%, fully stimulated MRGPRX4 = 100%; details: Figure 4c-f, agonist 100µM, MRGPRX4 = 100
T1 construct: expressed in transfected cells; host or cells: HEK293T

[2] = target: T2, MRGPRX4 + RAMP2 (Homo sapiens, UniProt Q96LA9); assay: IP1 accumulation, MRGPRX4 coexpressed with RAMP2; format: cell-based; design: key to response to agonist, X4:ramp2.I:2: % IP1: mock-transfected unstimulated = 0%, fully stimulated MRGPRX4 = 100%; key to IP1 Basal / response to agonist, X4:ramp2.I:0.25 / response to agonist, X4:ramp2.I:0.5 / response to agonist, X4:ramp2.I:1: % IP1; unstimulated mock = 0%, fully stimulated MRGPRX4 = 100%; details: Figure 4c-f, agonist 100µM, MRGPRX4 = 100
T2 construct: expressed in transfected cells; host or cells: HEK293T

[3] = test system: mock-transfected HEK293T cells; assay: IP1 accumulation, mock-transfected cells; format: cell-based, human; design: IP1 Basal / IP1 span / IP1 Emax / IP1 accumulation, dose-response (Figure 1a) / IP1 accumulation with YM (Figure 1c) / IP1 accumulation: unit not given here; details: pcDNA (mock), individual replicates
[4] = target: T1, MRGPRX4 + RAMP3; assay: IP1 accumulation, MRGPRX4 coexpressed with RAMP3; format: cell-based; design: key: % IP1; unstimulated mock = 0%, fully stimulated MRGPRX4 = 100%; details: Figure 4c-f; agonist 100µM; X4:ramp3 1:2; MRGPRX4 = 100

T1 sequence (Q96LA9 whole entry): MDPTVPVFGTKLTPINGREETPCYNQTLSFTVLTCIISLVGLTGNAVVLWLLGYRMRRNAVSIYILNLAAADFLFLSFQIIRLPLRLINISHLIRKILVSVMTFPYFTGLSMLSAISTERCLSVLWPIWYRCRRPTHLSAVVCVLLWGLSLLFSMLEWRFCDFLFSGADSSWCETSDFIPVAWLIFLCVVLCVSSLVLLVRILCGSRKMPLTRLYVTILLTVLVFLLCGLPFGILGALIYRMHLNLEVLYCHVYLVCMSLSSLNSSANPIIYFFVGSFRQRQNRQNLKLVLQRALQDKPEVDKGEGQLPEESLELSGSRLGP
T2 sequence (Q96LA9 whole entry): as above

C[C@H](CCC(=O)NCCS(=O)(=O)O)[C@H]1CC[C@H]2[C@@H]3CC[C@@H]4C[C@H](O)CC[C@]4(C)[C@H]3C[C@H](O)[C@]12C [TDCA, Taurodeoxycholic acid]
response to agonist, X4:ramp3.I:0.25 ([1]; X4:ramp3 1:0.25): 75.8743 and 69.8198
response to agonist, X4:ramp3.I:0.5 ([1]; X4:ramp3 1:0.5): 71.1633 and 71.0507
response to agonist, X4:ramp3.I:1 ([1]; X4:ramp3 1:1): 68.5255 and 51.1881
response to agonist, X4:ramp2.I:0.25 ([2]; X4:ramp2 1:0.25): 76.6313 and 76.3781
response to agonist, X4:ramp2.I:0.5 ([2]; X4:ramp2 1:0.5): 59.1022 and 61.5718
response to agonist, X4:ramp2.I:1 ([2]; X4:ramp2 1:1): 39.1806 and 35.15
response to agonist, X4:ramp2.I:2 ([2]; X4:ramp2 1:2): 12.332 and 15.0971
IP1 accumulation, dose-response (Figure 1a) ([3]; log [agonist] (M) -4): 0.277 and 0.4314 and 0.7552 and 0.05214 and 0.8196 and 0.004346 and 0.07799 and 0.2082 and -0.7055 and 0.02887 and 0.02154 and -0.2702
IP1 accumulation, dose-response (Figure 1a) ([3]; log [agonist] (M) -4.95424): 0.666 and 0.2913 and 0.6803 and 0.05284 and 0.1544 and 0.254 and 0.03541 and -0.4236 and -0.5986 and 0.1648 and -0.7514 and -0.1187
IP1 accumulation, dose-response (Figure 1a) ([3]; log [agonist] (M) -5.90849): 0.6055 and 0.3564 and 0.9177 and 0.421 and 0.4207 and 0.09062 and 0.2243 and -0.1271 and -0.5946 and 0.5044 and 0.1318 and -0.2093
IP1 accumulation, dose-response (Figure 1a) ([3]; log [agonist] (M) -6.86273): 0.7575 and 0.6878 and 1.269 and 0.5282 and 0.9623 and 0.4904 and 0.6445 and 0.2971 and -0.08157 and 1.2983 and 1.581 and 1.374
response to agonist, X4:ramp3.I:2 [4]: 51.7108 and 61.6065
